ChEMBL document CHEMBL1145582, “4,5-Disubstituted oxazolidinones: High affinity molecular effectors of RNA function” (Bioorg Med Chem Lett, 2008)
Active and inactive are the calls of the source. The calls are words filed in the database; no cut-off is given here.

What was measured:
[1] = Binding affinity at RNAs 3'-Fl-18-Rh-AM1A T box antiterminator model RNA by FRET assay; design: species or system Bacillus subtilis
[2] = target: T1, Guanyl-specific ribonuclease T1 (Aspergillus oryzae (strain ATCC 42149 / RIB 40)) (UniProt P00651); experiment: Reduction of Aspergillus oryzae RNase T1 cleavage in position 9 of AM1A T box antiterminator model RNA; design: scale not given: the % may be the effect or the level left
T1 sequence (whole entry): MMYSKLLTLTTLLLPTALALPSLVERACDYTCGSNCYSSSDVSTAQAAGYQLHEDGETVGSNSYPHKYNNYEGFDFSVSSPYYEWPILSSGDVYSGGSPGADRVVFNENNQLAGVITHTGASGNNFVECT

[3] = target: T1, Guanyl-specific ribonuclease T1 (Aspergillus oryzae (strain ATCC 42149 / RIB 40)); experiment: Reduction of Aspergillus oryzae RNase T1 cleavage in position 7 of AM1A T box antiterminator model RNA; design: scale not given: the % may be the effect or the level left
[4] = Binding affinity at AM1A T box antiterminator model RNA in presence of cognate tRNA; design: species or system Bacillus subtilis
[5] = system: Bacillus subtilis; experiment: Reduction of Bacillus subtilis tRNA-glycine-dependent antitermination at 1.3 mM in presence on RNA polymerase; design: scale not given: the % may be the effect or the level left
[6] = target: T1, Guanyl-specific ribonuclease T1 (Aspergillus oryzae (strain ATCC 42149 / RIB 40)); experiment: Reduction of Aspergillus oryzae RNase T1 induced cleavage at position 8 of AM1A T box antiterminator model RNA; design: scale not given: the % may be the effect or the level left
[7] = Binding affinity at 3'-Fl-18-Rh-C11U T box antiterminator model RNA by FRET assay; design: species or system Bacillus subtilis
[8] = target: T1, Guanyl-specific ribonuclease T1 (Aspergillus oryzae (strain ATCC 42149 / RIB 40)); experiment: Enhancement of Aspergillus oryzae RNase T1 cleavage in position 15 of AM1A T box antiterminator model RNA
[9] = target: T1, Guanyl-specific ribonuclease T1 (Aspergillus oryzae (strain ATCC 42149 / RIB 40)); experiment: Decrease in Aspergillus oryzae RNase T1 cleavage in AM1A T box antiterminator model RNA

Row | SMILES | Kd [1] | Kd [7] | other results
1 | CN(CCc1ccccc1)C[C@H]1NC(=O)O[C@@H]1COC(=O)Cc1ccccc1 | 114 µM |  | 
2 | O=C(Cc1ccccc1)OC[C@H]1OC(=O)N[C@@H]1CN1CCN(c2ccccc2)CC1 | 13 µM | 100 µM | Activity [2]: 57%; Activity [3]: 44%; Kd [4]: 64 µM; Activity [5]: 40%; Activity [6]: 41%; Activity [8]: 70%
3 | O=C(Cc1ccccc1)OC[C@H]1OC(=O)N[C@@H]1Cc1ccccc1 | 9 µM | 125 µM | 
4 | O=C(Cc1ccccc1)OC[C@H]1OC(=O)N[C@@H]1CN1CCOCC1 | 42 µM |  | 
5 | CN(C[C@H]1NC(=O)O[C@@H]1COC(=O)Cc1ccccc1)c1ccccc1 | 61 µM | 122 µM | 
6 | CCCCCCCC(=O)OC[C@H]1OC(=O)N[C@@H]1CN(C)c1ccccc1 | 6.6 µM | 4.1 µM | 
7 | CC(=O)c1ccc(NC(=O)OC[C@H]2OC(=O)N[C@@H]2CN2CCN(c3ccccc3)CC2)cc1 | 0.9 µM | < 1 µM | Activity [9]: Active
